Source: patent US8957087B2, “Heterocyclic substituted acardite derivate and application thereof” (Jiangsu Provincial Institute of Materia Medica Co., Ltd., priority 2009, dated 2015)
Read-outs that look alike come from different tables or passages of the source.

Key:
Raf-1(truncated) = assay: Raf-1 inhibitor screening by chemoluminescence method; format: biochemical; conditions: Final concentration 1 x 1.0*10^−5 mol/ml
Source text: 1. Inhibitory activity of the compound of the present invention on raf kinase
Raf-1 inhibitor screening by chemoluminescence method
Westernblot electrophoresis apparatus Rotaryshaker
Raf-1(truncated), Magnesium/ATP Cocktail, MEK1 unactive

[1] = system: human lung cancer cell strain A549; assay: MTT assay, inhibition of growth of human lung cancer cell strain A549; format: cell-based
Procedure: 4. Using 3-(4,5-dimethylthiazol-2-yl)-2,5-diphenyl tetrazolium bromide assay (MTT) to detect the inhibition effects on the growth of human lung cancer cell strain A549
[Test materials] MTT working solution, F12 medium containing 10% FBS, continuous injectors
(§1) [Tested compound] Compounds 1-38
(§2) [Positive control medicine] Sorafenib, compounds A′, B′, C′ with no substituent or only amino formyl in A ring
The inhibition rate is calculated as follows:
(§3) Relative OD value of conrol well=OD value of control well−OD value of blank well
(§4) Relative OD value of drug well=OD value of drug well−OD value of blank well

[2] = system: human high-metastic lung cancer cell 95D; assay: Inhibition of human high-metastic lung cancer cell 95D migration (Boyden Chamber Transwell); format: cell-based; conditions: Final concentration 1 x 1.0*10^(−5) mol/L
Procedure: 5 Inhibition effects of compounds on human high-metastic lung cancer cell 95D migration
[Test materials] Boyden Chamber Transwell chamber (with pore size of 8 μm), human high-metastic lung cancer cell 95D cell strain, 1640 medium containing 10% FBS, 1640 medium containing no serum
as §1, §2
(§5) The inhibition rate is calculated as follows: […]

lung cancer cell A549 = assay: Effects on the adhesive ability of lung cancer cell A549; format: cell-based, human; conditions: Final concentration 1 x 1.0*10^(−5) mol/L
Procedure: 6. Effects of tested compounds on the adhesive ability of lung cancer cell A549
[Test materials] gelatin, CCK8, poly-lysine (PLL), A549 cell stains, 1640 medium containing 10% FBS
(§6) [Tested compound] Compounds 1-38 to be tested
as §2, §5
Dosing dosing cells without cell group (gelatin adhesive OD/PLL adhesion OD)−Dosing cell group (gelatin adhesive OD/PLL adhesion OD value)
Dosing dosing cells without cell group (gelatin adhesive OD/PLL adhesion OD value)

[3] = system: human umbilical vein endothelial cell HUVEC; assay: Growth of human umbilical vein endothelial cell HUVEC by CCK8 method; format: cell-based; conditions: Final concentration 1 x 1.0*10^(−5) mol/L
Source text: 7. Effects of tested compounds on the growth of human umbilical vein endothelial cell HUVEC cell by CCK8 method
[Test materials] CCK8, human umbilical vein endothelial cell HUVEC cell, 1640 medium containing 10% FBS
as §6, §2, §3, §4

[4] = system: human umbilical vein endothelial cell HUVEC; assay: Lumen formation ability of HUVEC (Matrigel method); format: cell-based; conditions: Final concentration 1 x 1.0*10^(−5) mol/L
Source text: 8. Inhibition effects of compounds on the lumen formation ability of human umbilical vein endothelial cell HUVEC
[Experimental principles] The human umbilical vein endothelial cells have ability of spontaneously forming blood lumen on Matrigel, which can be used to simulate the process of angiogenesis in vivo. We used Matrigel method to investigate the effects of the compound on the lumen formation ability of human umbilical vein endothelial cell HUVEC.
[Test materials] HUVEC (taking generation 3 to 5 cells for experiments after obtained from primary separation and cultured at 37 under the conditions of 5% CO2), Matrigel, cell culture medium M199.
as §1, §2, §5

[5] = system: human lung cancer A549 transplantation tumor; format: in vivo; conditions: BALB/cA nude mice; 60 mg/kg, 6 times every week for 3 weeks; Sorafenib oral 60 mg/kg
Procedure: 9. Tumor inhibition rate of tested compounds on human lung cancer A549 cell transplantation model in nude mice
(§7) [Test animals] female BALB/cA nude mice, 35-40 days old, with weight of 18-22g. There were 12 mice in the negative conrol group and 6 mice in the treatment group.
(§8) The dosage of the compound was 60 mg/kg, 6 times every week for 3 weeks. […] Equal amount of normal saline was administrated in the negative control group. Observe for one week after administration.

[6] = system: human liver cancer cell bel-7402 transplantation tumor; format: in vivo; conditions: BALB/cA nude mice; 60 mg/kg, 6 times every week for 3 weeks; Sorafenib oral 60 mg/kg
Procedure: 10. Tumor inhibition rate of tested compounds on human liver cancer cell bel-7402 transplantation tumor model in nude mice
as §7, §8

[7] = system: renal carcinoma cell line GCR-1 transplanted tumor; format: in vivo, BALB/cA nude mice; conditions: BALB/cA nude mice; 60 mg/kg, 6 times every week for 3 weeks; Sorafenib oral 60 mg/kg
Procedure: 11. Tumor inhibition rate of medicines on renal carcinoma cell line GCR-1 transplanted tumor model in nude mice
as §7
[Test method] […] The dosage of the medicine was 60 mg/kg, 6 times every week for 3 weeks. […] Equal amount of normal saline was administrated in the negative control group. Observe for one week after administration.

mice S180 sarcoma = assay: Experimental therapeutic action on S180 sarcoma mice; conditions: mice S180 sarcoma, 60 mg/kg orally for 9 days
[8] = system: Human colon cancer HT-29 transplantable tumor; assay: Human colon cancer HT-29 transplantable tumor in nude mice; conditions: HT-29 in nude mice, 60 mg/kg ig 9 times
[9] = Final concentration 1 x 1.0*10^(−5) mol/L

Row | Compound | Inhibition rate % on raf kinase (Raf-1(truncated)) [%] | Inhibition rate, growth of human lung cancer cell A549 [1, 9] [%] | Inhibition rate, 95D cell strain migration [2] [%] | Inhibition rate, adhesion ability of human lung cancer cell A549 (lung cancer cell A549) [%] | Inhibition rate, growth of HUVEC cell [3] [%] | Inhibition rate, lumen formation ability of HUVEC [4] [%] | Relative tumor reproduction rate T/C (%) on human lung cancer A549 transplantation tumor in nude mice [5] [%] | Relative tumor reproduction rate T/C (%) on human liver cancer cell bel-7402 transplantation tumor model in nude mice [6] [%] | Relative tumor reproduction rate T/C (%) on human renal carcinoma GCR-1 cell transplanted tumor model in nude mice [7] [%] | Tumor growth inhibition rate (%) (mice S180 sarcoma) | Relative tumor reproduction rate T/C (%) [8] [%] | Inhibition rate, growth of human lung cancer cell A549 [1] [%]
1 | CNC(=O)c1ncc(Oc2ccc(NC(=O)Nc3ccc(Br)c(C(F)(F)F)c3)cc2)c(OC)n1 [Compound 9, N-(4-bromo-3-(trifluoromethyl)phenyl)-N′-(4-(2-(N-methylaminoformoxyl)-5-(4-methoxypyrimidinyl)oxy)phenyl)urea] | 99.2 | 61.54 | 91.42 | 85.32 | 11.54 | 91.45 | 38.7 | 36.8 | 28.3 | 55.9 | 35.2 | –
2 | COc1ccc2nccc(Oc3ccc(NC(=O)Nc4ccc(Cl)c(C(F)(F)F)c4)cc3)c2c1 [Compound 16] | 62.1 | 89.71 | 89.31 | 90.77 | 10.71 | 80.79 | 9.9 | 14.9 | 9.9 | 33.6 | 55.2 | –
3 | Cc1cc(Oc2ccc(NC(=O)Nc3ccc(Br)c(C(F)(F)F)c3)cc2)c[nH]1 [Compound 30, N-(4-bromo-3-(trifluoromethyl)phenyl)-N′-(4-(4-(2-methyl-pyrryl)oxy)phenyl)urea] | 16.8 | – | 69.62 | 92.44 | 25.46 | 90.66 | 13.1 | 16.1 | 10.2 | 55.2 | 79.5 | 85.47
4 | N-(4-chloro-3-(trifluoromethyl)phenyl)-N′-(4-(2-(N-methylaminoformoxyl)-4-(7 fluoroquinazolinyl)oxy)phenyl)urea [Compound 4] | 82.2 | 91.12 | 96.38 | 89.71 | 5.12 | 86.77 | 12.3 | 15.3 | 9.6 | 50.1 | 33.15 | –
5 | CCc1cc(NC(=O)Nc2ccc(Oc3ccnc4cc(F)c(C)cc34)cc2)ccc1Cl [Compound 33, N-(4-chloro-3-ethylphenyl)-N′-(4-(4-(6-methyl-7-fluoro-quinolinyl)oxy)phenyl)urea] | 92.3 | – | 77.52 | 77.59 | 17.50 | 67.51 | 37.5 | 32.7 | 33.4 | 55.3 | 39.9 | 57.53
6 | N-(4-chloro-3-(trifluoromethyl)phenyl)-N′-(4-(2-(N-methylaminoformoxyl)-4-(7-amino-isoquinolyl)oxy)phenyl)urea [Compound 10] | 3.5 | 74.50 | 61.43 | 64.57 | 14.50 | 50.34 | 30.1 | 28.1 | 27.1 | 55.2 | 78.9 | –
7 | N-(4-fluoro-3-(trifluoromethyl)phenyl)-N′-(4-(4-(2-methyl-pyrryl)oxy)phenyl)urea [Compound 29] | 85.3 | – | 61.44 | 91.40 | 21.40 | 86.43 | 14.7 | 16.2 | 12.8 | 14.2 | 78.3 | 86.42
8 | Nc1ccc2c(Oc3ccc(NC(=O)Nc4ccc(Br)c(C(F)(F)F)c4)cc3)cncc2c1 [Compound 27, N-(4-bromo-3-(trifluoromethyl)phenyl)-N′-(4-(4-(7-amino-isoquinolyl)oxy)phenyl)urea] | 8.8 | – | 59.77 | 94.77 | 24.73 | 89.75 | 36.3 | 29.2 | 26.2 | 55.1 | 80.3 | 64.71
9 | Cc1cc(Oc2ccc(NC(=O)Nc3ccc(Cl)c(C(F)(F)F)c3)cc2)c[nH]1 [Compound 28, N-(4-chloro-3-(trifluoromethyl)phenyl)-N′-(4-(4-(2-methyl-pyrryl)oxy)phenyl)urea] | 33.5 | – | 70.53 | 90.53 | 20.55 | 89.52 | 13.6 | 17.5 | 11.4 | 11.5 | 39.1 | 88.52
